These results are taken from patent US20180318311A1, “TRICYCLIC 2-QUINOLINONES AS ANTIBACTERIALS” (priority 2017, published 2018).

Molecules are shown by their SMILES. Values after ≈ are worked out from the molar mass of the structure shown.

Assay type in all cases: cell-based
The test system of assay [1] is S. aureus ATCC 49951 (NB01006). As to the kind of experiment: MIC by broth microdilution, S. aureus NB01006. As to conditions: Staphylococcus aureus, ATCC49951, CAMHB, 35° C., 20 hours, read-out: Antibacterial activity (MIC) NB01006. The method, boiled down: (§1)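 CLSI broth microdilution in CAMHB, inoculum ~5×10^5 CFU/mL, two-fold compound dilutions at 1% final DMSO. Plates incubated 20 h at 35°C in ambient air; MIC (μg/mL) is the lowest concentration preventing visible growth, confirmed by OD600.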
On the technique in general: In broth dilution the organism is exposed to a series of concentrations in liquid medium.

Assay [2] concerns S. aureus NB01006-AVR005, gyrA (S84L), grlA (580F) and grlB (E471K). Nature of the assay: microbe, parasite or virus in culture. To be noted: Staphylococcus aureus, 20 h, read-out: Antibacterial activity (MIC) NB01006-AVR005. The method, boiled down: as §1
The subject of assay [3] is S. aureus NB01080 fluoroquinolone-resistant clinical isolate. Nature of the assay: MIC by broth microdilution, S. aureus NB01080. To be noted: Staphylococcus aureus, CAMHB, 35° C., 20 hours, read-out: Antibacterial activity (MIC) NB01080. In a few lines:
as §1

For assay [4], the system named is E. faecalis ATCC 29212 (NB04001). As to the kind of experiment: MIC by broth microdilution, E. faecalis NB04001. To be noted: Enterococcus faecalis, ATCC29212, CAMHB, 35° C., 20 hours, read-out: Antibacterial activity (MIC) NB04001. In a few lines:
as §1

The test system of assay [5] is S. pneumoniae ATCC 25922 (NB07001). As to the kind of experiment: MIC by broth microdilution, S. pneumoniae NB07001. To be noted: Streptococcus pneumoniae, ATCC25922, 20 h, read-out: Antibacterial activity (MIC) NB07001. The method, boiled down:
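CAMHB, ~5×10^5 CFU/mL, 2-fold serial dilutions (final DMSO 1%), 35° C, ambient air, 20 h. Read OD600 plus visual check; MIC = lowest conc. with no visible growth, μg/mL.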

For assay [6], the system named is E. coli ATCC 25922 (NB27001). As to the kind of experiment: MIC by broth microdilution, E. coli NB27001. To be noted: Escherichia coli, ATCC25922, CAMHB, 35° C., 20 hours, read-out: Antibacterial activity (MIC) NB27001. In a few lines: as §1
Assay [7] relates to P. aeruginosa NB52019, wild-type PAO1 strain. As to the kind of experiment: MIC by broth microdilution, P. aeruginosa NB52019. To be noted: Pseudomonas aeruginosa, CAMHB, 35° C., 20 hours, read-out: Antibacterial activity (MIC) NB52019. In a few lines:
as §1

`C[C@H]1COc2c(N3CCC(C)(CN)C3)c(F)cc3cc(C(=O)O)c(=O)n1c23` (stereo partly drawn) [Example 1.26, (3S)-10-(3-(aminomethyl)-3-methylpyrrolidin-1-yl)-9-fluoro-3-methyl-5-oxo-2,3-dihydro-5H-[1,4]oxazino[2,3,4-ij]quinoline-6-carboxylic acid]: the MIC was 1 to 32 µg/mL (≈ 2.66 to 85.2 µM) in assay [1]; above 32 µg/mL in assay [2]; 1 to 32 µg/mL (≈ 2.66 to 85.2 µM) in assay [3]; 1 to 32 µg/mL (≈ 2.66 to 85.2 µM) in assay [4]; 1 to 32 µg/mL (≈ 2.66 to 85.2 µM) in assay [5]; 1 to 32 µg/mL (≈ 2.66 to 85.2 µM) in assay [6]. Also, in assay [7], the MIC was above 32 µg/mL.
As for `C[C@H]1COc2c(N3CC[C@@H](C4(N(C)C)CC4)C3)c(F)cc3cc(C(=O)O)c(=O)n1c23` [Example 1.27, (S)-10-((R)-3-(1-(dimethylamino)cyclopropyl)pyrrolidin-1-yl)-9-fluoro-3-methyl-5-oxo-2,3-dihydro-5H-[1,4]oxazino[2,3,4-ij]quinoline-6-carboxylic acid], the MIC is 1 to 32 µg/mL (≈ 2.41 to 77 µM) in assay [1]; above 32 µg/mL in assay [2]; 1 to 32 µg/mL (≈ 2.41 to 77 µM) in assay [3]; 1 to 32 µg/mL (≈ 2.41 to 77 µM) in assay [4]; below 1 µg/mL in assay [5]; 1 to 32 µg/mL (≈ 2.41 to 77 µM) in assay [6]. Further, in assay [7], the MIC is above 32 µg/mL.
As for `C[C@H]1COc2c(N3CCC4(CC3)CC(N)C4)c(F)cc3cc(C(=O)O)c(=O)n1c23` [Example 1.30, (S)-10-(2-amino-7-azaspiro[3.5]nonan-7-yl)-9-fluoro-3-methyl-5-oxo-2,3-dihydro-5H-[1,4]oxazino[2,3,4-ij]quinoline-6-carboxylic acid], the MIC in assay [1] is 1 to 32 µg/mL (≈ 2.49 to 79.7 µM); in assay [2], above 32 µg/mL; in assay [3], above 32 µg/mL; in assay [4], 1 to 32 µg/mL (≈ 2.49 to 79.7 µM); in assay [5] it was 1 to 32 µg/mL (≈ 2.49 to 79.7 µM); in assay [6], above 32 µg/mL. Besides, the MIC in assay [7] was above 32 µg/mL.
Turning to `C[C@H]1COc2c(N3Cc4cncnc4C3)c(F)cc3cc(C(=O)O)c(=O)n1c23` [Example 1.31, (S)-10-(5,7-dihydro-6H-pyrrolo[3,4-d]pyrimidin-6-yl)-9-fluoro-3-methyl-5-oxo-2,3-dihydro-5H-[1,4]oxazino[2,3,4-ij]quinoline-6-carboxylic acid], the MIC in assay [1] was below 1 µg/mL; in assay [2], above 32 µg/mL; in assay [3] it was 1 to 32 µg/mL (≈ 2.62 to 83.7 µM); in assay [4], 1 to 32 µg/mL (≈ 2.62 to 83.7 µM); in assay [5], below 1 µg/mL; in assay [6] it was 1 to 32 µg/mL (≈ 2.62 to 83.7 µM). The MIC in assay [7] was above 32 µg/mL.
Consider `C[C@H]1COc2c(N3CC[C@@H](C(C)(C)O)C3)c(F)cc3cc(C(=O)O)c(=O)n1c23` [Example 1.34, (S)-9-fluoro-10-((R)-3-(2-hydroxypropan-2-yl)pyrrolidin-1-yl)-3-methyl-5-oxo-2,3-dihydro-5H-[1,4]oxazino[2,3,4-ij]quinoline-6-carboxylic acid], for which the MIC in assay [1] is 1 to 32 µg/mL (≈ 2.56 to 82 µM); in assay [2], above 32 µg/mL; in assay [3], above 32 µg/mL; in assay [4], above 32 µg/mL; in assay [5], above 32 µg/mL; in assay [6], above 32 µg/mL. The MIC in assay [7] was above 32 µg/mL.
Turning to `C[C@H]1COc2c(N3CC[C@H](C4(N)CC4)C3)c(F)cc3cc(C(=O)O)c(=O)n1c23` [Example 1.35, (S)-10-((S)-3-(1-aminocyclopropyl)pyrrolidin-1-yl)-9-fluoro-3-methyl-5-oxo-2,3-dihydro-5H-[1,4]oxazino[2,3,4-ij]quinoline-6-carboxylic acid], the MIC in assay [1] was 1 to 32 µg/mL (≈ 2.58 to 82.6 µM); in assay [2], above 32 µg/mL; in assay [3], 1 to 32 µg/mL (≈ 2.58 to 82.6 µM); in assay [4], 1 to 32 µg/mL (≈ 2.58 to 82.6 µM); in assay [5], 1 to 32 µg/mL (≈ 2.58 to 82.6 µM); in assay [6], 1 to 32 µg/mL (≈ 2.58 to 82.6 µM). For the same compound, in assay [7], the MIC is above 32 µg/mL.
